Measurements as given in patent publication US7976241B2, “Soil remediation method and composition” (priority 2006, dated 2011).

Experiments:
[1] = cited from earlier work
[2] = Chlorinated DNAPL dissolution in control sample without cosolvent-surfactant; assay type: physicochemical; details: in presence of DNAPL, no Citrus Burst-3, 50 g/L NaCl, 25° C., 48 hours
Source text: A chlorinated solvent DNAPL was obtained from a site consisting of chlorinated solvents and chlorinated semi-volatile compounds. Composition of the chlorinated solvent DNAPL is presented based on determinations using USEPA Methods 8260 and 8270. An aliquot of the DNAPL was mixed with a suitable quantity of deionized water to determine the equilibrium solubility of the individual compounds in the presence of the DNAPL.
The data collected under the experimentation conditions presented in Table 2 were obtained at 25° C. with 60 rpm shaker table mixing for 48 hours. After the shaker was shut off, the samples sat quietly for 5 minutes before the supernatant was analyzed. DNAPLmax represents the maximum concentration of DNAPL that may dissolve, given the mass of DNAPL and the volume of water.
Carbon tetrachloride and tetrachloroethylene comprised more than 87 percent of the DNAPL. Being a saturated compound, carbon tetrachloride is generally a pervasive and difficult to degrade compound once introduced to the subsurface. […] After 48 hours of slowly mixing the DNAPL and water mixtures, the samples were allowed to sit for 5 minutes and then samples of the solubilized fraction of the mixture were collected and analyzed for VOCs using USEPA Method 8260. Samples from experiment number 1, 3, 5, 7 and 8 (control) were analyzed. […]

Structure (SMILES) | Pure Compound Aqueous Solubility [1] | Observed Solubility in Control Sample [2]
Clc1c(Cl)c(Cl)c2c(Cl)c(Cl)c(Cl)c(Cl)c2c1Cl [Octachloronaphthalene (OCN), Octachloronaphthalene] | insoluble | 
ClC(Cl)(Cl)Cl [Carbon Tetrachloride (CTC), Carbon Tetrachloride] | 129 µg/mL | 100 µg/mL
